Assay results: patent US4402975A, “Aminocarboxylic acids, amino alcohols, or the derivatives thereof, processes for production thereof, and pharmaceutical uses thereof” (Teijin Limited, priority 1980, dated 1983)
Counter-ions that a name gives are not always drawn.

Experiments:
indomethacin ulcer = experiment: Inhibitory activity on indomethacin ulcer; assay type: in vivo, SD-strain male rats; settings: 200 mg/kg oral, 30 min before indomethacin 20 mg/kg oral, rats
Method: Seven week-old SD-strain male rats (body weight 200 to 220 g) were fasted for 24 hours but water was provided freely, and then used in the following experiment.
Each of the test compounds suspended in 0.5% CMC was orally administered to the rats, and 30 minutes later, indomethacin was orally administered in a dose of 20 mg/kg. Six hours later, the animals were sacrificed. The abdomen was cut open, and the stomach was removed. 1% Evan's blue was injected in an amount of 0.5 ml/rat into the rats through the tail vein under ether anesthesia 10 minutes before sacrificing.
12 ml of a 1% formalin was injected into the stomach and the stomach was further dipped in 1% formalin for about 10 minutes for the fixation. The stomach was cut open on the side of the greater curvature, and spread on a glass plate. The lengths of ulcers generated in the glandular stomach were measured by using a solid microscope. The sum of the lengths of the ulcers for each animal was used as the ulcer index. The ulcer inhibiting ratio of the test compound was calculated in accordance with the following equation. [formula]
The control group was given 0.5% CMC and indomethacin alone.

gastric secretion = experiment: Inhibitory activity on gastric secretion (pylorus ligation); assay type: in vivo, male rats; settings: for Amount of gastric juice: 4 hours after pylorus ligation, control 6.8 ± 0.6, in ml (unit assumed); for Acidity: control 109.1 ± 1.7
Method: Seven week-old DS-strain male rats (body weight 200 to 220 g) were fasted for 24 hours but water was provided freely, and then used in the following experiment.
The rats were anesthetized with ether. The abdomen was cut open along the median line to expose the pylorus. Then, the pylorus was ligated. After ligation, each of the test compounds dissolved in physiological saline was intraperitoneally administered to the animals. The abdomen was sutured, and after confirming that the animals recovered from ether anesthesia, they were kept in a wire cage while being deprived of food and water. Four hours later, the animals were killed by using ether. The abdomen was again cut open, and the stomach was removed. The gastric juice was collected, and its volume and acidity was measured. The acidity of the gastric juice was determined by titrating with 0.05 N sodium hydroxide using phenolphthalein as an indicator, and calculating the amount of sodium hydroxide required to neutralize the gastric juice which is estimated as the acidity of the gastric juice.
(§1) The control group was given physiological saline alone.
For the method of studying the inhibitory activity on the gastiic secretion, reference may be made to H. Shay, S. A. Komoroe, S. S. Fels, M. Meraze, M. Gruestein and H. Siplet: Gastroent., 5, 43 (1945), and M. L. Anson: J. Gen, Physiol., 21, 79 (1938).

serotonin ulcer = experiment: Inhibitory activity on serotonin ulcer; assay type: in vivo, SD-strain male rats; settings: 30 min before serotonin 20 mg/kg s.c., rats
Method: Seven week-old SD-strain male rats (body weight 200 to 220 g) were fasted for 24 hours but water was provided freely, and then used in the following experiment. Each of the test compounds suspended in 0.5% CMC was administered to the rats either orally or intraperitoneally, and 30 minutes later, serotonin (serotonin creatinine sulfate) was subcutaneously administered to the rats in a dose of 20 mg/kg. Four hours later, the animals were sacrificed. The abdomen was cut open, and the stomach was taken out from each animal. 12 ml of 1% formalin was injected into the stomach to inflate it, and the stomach was further dipped for about 10 minutes in 1% formalin for fixation. Then, the stomach was cut open on the side of the lesser curvature, and spread on a glass plate. The area of ulcers generated in the glandular stomach was measured by using a solid microscope. The sum of the area of ulcer for each animal was used as the ulcer index. The ulcer inhibiting ratio of the test compound was calculated in accordance with the following equation. [formula] The control group was given 0.5% CMC and serotonin alone.

plasmin = target: T1, plasmin (Homo sapiens, UniProt P00747); experiment: Antiplasmin activity (clot lysis time, fibrinogen/urokinase/thrombin); assay type: biochemical; settings: first series, control 391.7 ± 16.1
T1 construct: fibrin clot lysis, native
Method: Human fibrinogen was dissolved in a phosphate-buffered physiological saline (PBS) at a pH of 7.4 to prepare a 0.2% solution. Urokinase and thrombin were dissolved similarly in PBS to prepare a solution containing 120 units of urokinase and 50 units of thrombin per ml. […] Then, 0.1 ml of the urokinase-thrombin mixed solution was added, and a microchronometer was started. One minute after the starting of the microchronometer, a glass ball having a diameter of 8 mm was put on the coagulated surface, and the incubation was continued. The time which elapsed from the dissolution of the coagulated mass until the glass ball dropped onto the bottom of the test tube was measured. As a control, PBS alone was added.

[1] = test system: blood flow in the gastric mucosa; experiment: Increasing activity on the blood flow in the dog gastric mucosa; assay type: in vivo, Male Beagle dogs; settings: anesthetized dogs, cross thermocouple method
Method: Male Beagle dogs (10 to 15 kg) were anesthetized by intravenously administering sodium pentobarbital in a dose of 35 mg/kg, and used in the following experiment.
The blood flow in the gastric mucosa was measured by a cross thermocouple method. The abdomen was cut open along the median line to expose the stomach. A wire-type cross thermocouple element was inserted behind the mucosa on the glandular stomach. The blood flow measured by the cross thermocouple element was recorded continuously in a recorder. For the method of measuring the blood flow, reference may be made to a Japanese-language publication "Blood Flow Measurement", page 105, 1974 Igakushoin, edited by Okinaka, Hori and Honda.

Shay ulcer = experiment: Inhibitory activity on Shay ulcer (pylorus ligation); assay type: in vivo, SD-strain male rats; settings: 300 mg/kg i.p.
Method: Seven week-old SD-strain male rats (body weight 200 to 220 g) were fasted for 24 hours but water was provided freely, and then used in the experiment.
The rats were anesthetized with ether. The abdomen was cut open along the median line to expose the pylorus. Then, the pylorus was ligated. After the ligation, each of the test compounds, dissolved in physiological saline, was administered intraperitoneally to the rats. The abdomen was sutured. After confirming that the animals recovered from ether anesthesia, they were kept in a wire cage while being deprived of food and water. Seventeen hours later, the animals were killed by using ether. The abdomen was again cut open, and the stomach was removed. The stomach was cut open, and the area of ulcers generated in the fundus was measured by using a solid microscope, and scored as tabulated below to obtain ulcer indices. […]
as §1
For the measurement of the Shay ulcer inhibiting activity, reference may be made to H. Shay, S. A. Komoroe, S. S. Fels, M. Meraze, M. Gruestein, and H. Siplet: Gastroent., 5, 43 (1945).

T1 sequence (P00747 97-810): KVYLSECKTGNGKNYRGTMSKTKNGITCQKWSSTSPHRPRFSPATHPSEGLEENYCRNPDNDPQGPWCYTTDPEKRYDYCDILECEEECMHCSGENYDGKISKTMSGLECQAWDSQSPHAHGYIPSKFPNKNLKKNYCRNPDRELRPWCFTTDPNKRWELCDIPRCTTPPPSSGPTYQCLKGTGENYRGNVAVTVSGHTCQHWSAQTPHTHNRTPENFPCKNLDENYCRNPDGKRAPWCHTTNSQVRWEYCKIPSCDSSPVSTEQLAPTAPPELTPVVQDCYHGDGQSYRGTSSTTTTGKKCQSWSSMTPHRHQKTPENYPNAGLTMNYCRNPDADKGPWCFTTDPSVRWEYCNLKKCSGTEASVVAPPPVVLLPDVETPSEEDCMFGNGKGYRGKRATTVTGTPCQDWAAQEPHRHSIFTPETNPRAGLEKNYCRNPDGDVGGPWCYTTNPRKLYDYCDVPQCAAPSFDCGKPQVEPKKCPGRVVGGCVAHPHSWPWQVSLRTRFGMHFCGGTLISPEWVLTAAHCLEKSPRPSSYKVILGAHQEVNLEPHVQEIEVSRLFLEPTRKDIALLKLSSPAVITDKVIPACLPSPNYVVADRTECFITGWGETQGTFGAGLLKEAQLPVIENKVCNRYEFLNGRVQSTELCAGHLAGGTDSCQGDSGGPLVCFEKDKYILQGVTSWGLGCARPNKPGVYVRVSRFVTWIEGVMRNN

Clot lysis time (plasmin; 10^-3 M): 980.0 s
Clot lysis time (plasmin; 10^-4 M): 561.2 s
Clot lysis time (plasmin; 10^-5 M): 413.9 s
SMILES: NC[C@H]1CC[C@H](C(=O)c2ccc(CCC(=O)O)cc2)CC1 [3-[p-trans-4-aminomethylcyclohexylcarbonyl)phenyl]-propionic acid hydrochloride]
Ulcer inhibiting ratio (indomethacin ulcer): 62.2%
Inhibition ratio (acidity) (gastric secretion; 50 mg/kg i.p.): 17.5%
Inhibition ratio (amount of gastric juice) (gastric secretion; 50 mg/kg i.p.): 41.7%
Amount of gastric juice (gastric secretion; 50 mg/kg i.p.): 4.8 ± 0.8
Acidity (gastric secretion; 50 mg/kg i.p.): 90.0 ± 4.5 μeq./ml
Inhibition ratio (acidity) (gastric secretion; 100 mg/kg i.p.): 31.8%
Inhibition ratio (amount of gastric juice) (gastric secretion; 100 mg/kg i.p.): 54.4%
Amount of gastric juice (gastric secretion; 100 mg/kg i.p.): 3.1 ± 0.7
Acidity (gastric secretion; 100 mg/kg i.p.): 74.1 ± 6.1 μeq./ml
Inhibition ratio (acidity) (gastric secretion; 200 mg/kg i.p.): 70.1%
Inhibition ratio (amount of gastric juice) (gastric secretion; 200 mg/kg i.p.): 89.4%
Amount of gastric juice (gastric secretion; 200 mg/kg i.p.): 0.7 ± 0.1
Acidity (gastric secretion; 200 mg/kg i.p.): 32.6 ± 2.6 μeq./ml
Ulcer inhibiting ratio (serotonin ulcer; 30 mg/kg oral): 34.0%
Ulcer inhibiting ratio (serotonin ulcer; 100 mg/kg oral): 76.7%
Increase in the gastric mucosal blood flow ([1]; 2 mg/kg i.v.): weak increase
Increase in the gastric mucosal blood flow ([1]; 5 mg/kg i.v.): remarkable
Inhibition ratio (Shay ulcer; Shay ulcer, rats): 43.5%
Ratio of perforation (Shay ulcer; Shay ulcer, rats, control 80): 20%
Ulcer index (Shay ulcer; score 0-5 by ulcer area, 17 hours after pylorus ligation, control 4.6 ± 0.4): 2.6 ± 0.8
